ChEMBL document CHEMBL3393000, “Synthesis and anticancer activity of some 8-substituted-7-methoxy-2H-chromen-2-one derivatives toward hepatocellular carcinoma HepG2 cells” (Eur J Med Chem, 2015)

Tests used:
HepG2 [1] = test: Cytotoxicity against human HepG2 cells assessed as reduction in cell viability after 72 hrs by MTT assay; type: functional, cell-based; conditions: HepG2, 72 h
[2] = target: Telomerase reverse transcriptase (Homo sapiens) (UniProt O14746); test: Inhibition of telomerase in human HepG2 cells at 2 uM after 1 day by TRAP-ELISA method; type: cell-based
[3] = target: Telomerase reverse transcriptase (Homo sapiens) (UniProt O14746); test: Inhibition of telomerase in human HepG2 cells at 4 uM after 1 day by TRAP-ELISA method; type: cell-based
[4] = target: Telomerase reverse transcriptase (Homo sapiens) (UniProt O14746); test: Inhibition of telomerase in human HepG2 cells at 1 uM after 2 days by TRAP-ELISA method; type: cell-based
[5] = target: Telomerase reverse transcriptase (Homo sapiens) (UniProt O14746); test: Inhibition of telomerase in human HepG2 cells at 4 uM after 3 days by TRAP-ELISA method; type: cell-based
[6] = target: Telomerase reverse transcriptase (Homo sapiens) (UniProt O14746); test: Inhibition of telomerase in human HepG2 cells at 1 uM after 3 days by TRAP-ELISA method; type: cell-based
[7] = target: Telomerase reverse transcriptase (Homo sapiens) (UniProt O14746); test: Inhibition of telomerase in human HepG2 cells at 1 uM after 1 day by TRAP-ELISA method; type: cell-based
[8] = target: Telomerase reverse transcriptase (Homo sapiens) (UniProt O14746); test: Inhibition of telomerase in human HepG2 cells at 2 uM after 3 days by TRAP-ELISA method; type: cell-based
[9] = target: Telomerase reverse transcriptase (Homo sapiens) (UniProt O14746); test: Inhibition of telomerase in human HepG2 cells at 2 uM after 2 days by TRAP-ELISA method; type: cell-based
[10] = target: Telomerase reverse transcriptase (Homo sapiens) (UniProt O14746); test: Inhibition of telomerase in human HepG2 cells at 4 uM after 2 days by TRAP-ELISA method; type: cell-based
[11] = target: Telomerase reverse transcriptase (Homo sapiens) (UniProt O14746); test: Inhibition of telomerase in human HepG2 cells at 1 to 4 uM after 1 to 3 days by TRAP-ELISA method; type: cell-based
HepG2 [12] = test: Induction of apoptosis in human HepG2 cells at 0.01 umol/ml after 24 hrs by annexin V-FITC/propidium iodide staining based flow cytometry (reference value: 0.54%); type: functional
HepG2 [13] = test: Induction of apoptosis in human HepG2 cells at 0.08 umol/ml after 24 hrs by annexin V-FITC/propidium iodide staining based flow cytometry (reference value: 0.54%); type: functional
HepG2 [14] = test: Induction of apoptosis in human HepG2 cells at 0.01 to 0.08 umol/ml after 24 hrs by annexin V-FITC/propidium iodide staining based flow cytometry; type: functional, cell-based
HepG2 [15] = test: Induction of apoptosis in human HepG2 cells at 0.04 umol/ml after 24 hrs by annexin V-FITC/propidium iodide staining based flow cytometry (reference value: 0.54%); type: functional
HepG2 [16] = test: Induction of apoptosis in human HepG2 cells at 0.02 umol/ml after 24 hrs by annexin V-FITC/propidium iodide staining based flow cytometry (reference value: 0.54%); type: functional

Telomerase reverse transcriptase (Homo sapiens), sequence (O14746 whole entry): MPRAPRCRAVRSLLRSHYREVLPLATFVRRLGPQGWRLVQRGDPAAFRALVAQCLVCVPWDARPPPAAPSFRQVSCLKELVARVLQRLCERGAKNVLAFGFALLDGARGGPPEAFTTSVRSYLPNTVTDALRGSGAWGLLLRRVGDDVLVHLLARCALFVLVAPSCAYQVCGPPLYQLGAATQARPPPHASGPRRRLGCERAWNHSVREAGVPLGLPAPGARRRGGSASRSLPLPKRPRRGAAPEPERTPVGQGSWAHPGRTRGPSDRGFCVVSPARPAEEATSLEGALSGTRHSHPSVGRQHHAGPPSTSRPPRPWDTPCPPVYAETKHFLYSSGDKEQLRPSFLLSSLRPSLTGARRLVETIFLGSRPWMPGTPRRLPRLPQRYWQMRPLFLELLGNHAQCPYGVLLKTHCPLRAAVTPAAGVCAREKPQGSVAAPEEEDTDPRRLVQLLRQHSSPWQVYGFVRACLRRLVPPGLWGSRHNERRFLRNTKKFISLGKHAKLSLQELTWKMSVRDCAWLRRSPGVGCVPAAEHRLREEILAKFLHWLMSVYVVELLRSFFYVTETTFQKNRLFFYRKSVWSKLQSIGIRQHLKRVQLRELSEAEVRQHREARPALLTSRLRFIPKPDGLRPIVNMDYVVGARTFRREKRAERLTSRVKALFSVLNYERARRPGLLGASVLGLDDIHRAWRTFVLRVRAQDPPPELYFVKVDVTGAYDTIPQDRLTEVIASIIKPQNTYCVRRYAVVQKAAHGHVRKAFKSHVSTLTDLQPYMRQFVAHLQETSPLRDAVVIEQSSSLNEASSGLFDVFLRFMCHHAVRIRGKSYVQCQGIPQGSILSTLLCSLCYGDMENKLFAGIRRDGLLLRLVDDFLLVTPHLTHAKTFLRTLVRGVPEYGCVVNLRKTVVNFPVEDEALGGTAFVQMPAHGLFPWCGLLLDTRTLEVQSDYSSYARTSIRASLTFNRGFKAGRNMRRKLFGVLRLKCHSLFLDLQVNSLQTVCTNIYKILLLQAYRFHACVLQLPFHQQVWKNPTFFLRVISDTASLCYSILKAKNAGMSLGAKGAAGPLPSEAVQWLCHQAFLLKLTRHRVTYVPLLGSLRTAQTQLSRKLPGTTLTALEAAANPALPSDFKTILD

## COc1cccc2c1C(=O)c1c(O)c3c(c(O)c1C2=O)C[C@@](O)(C(=O)CO)C[C@@H]3O[C@H]1C[C@H](N)[C@H](O)[C@H](C)O1 [DOXORUBICIN]
HepG2 [1]
  IC50: 630 nM

## COc1ccc2ccc(=O)oc2c1CC=C(C)C [OSTHOLE]
HepG2 [1]
  IC50: 161000 nM

## COc1ccc2ccc(=O)oc2c1C1=NN(c2ccccc2)C(c2cccs2)C1 (configuration not stated)
HepG2 [1]
  IC50: 15 nM
[2]
  inhibition: 20.1%
[3]
  inhibition: 28%
[4]
  inhibition: 19.4%
[5]
  inhibition: 68.3%
[6]
  inhibition: 26.1%
[7]
  inhibition: 16.8%
[8]
  inhibition: 40.3%
[9]
  inhibition: 30%
[10]
  inhibition: 56.6%
[11]
  inhibition: Dose-dependent effect

## COc1ccc2ccc(=O)oc2c1C1=NN(C(N)=O)C(c2ccccc2)C1 (configuration not stated)
HepG2 [1]
  IC50: 90 nM

## COc1ccc2ccc(=O)oc2c1C(/C=C/c1ccccc1)=N/NC(N)=O
HepG2 [1]
  IC50: 82 nM

## COc1ccc2ccc(=O)oc2c1C1=NNC(c2ccc(C(F)(F)F)cc2)C1 (configuration not stated)
HepG2 [1]
  IC50: 13 nM
[2]
  inhibition: 21%
[3]
  inhibition: 29.2%
[4]
  inhibition: 20.2%
[5]
  inhibition: 71.1%
[6]
  inhibition: 27.2%
[7]
  inhibition: 17.5%
[8]
  inhibition: 42%
[9]
  inhibition: 31.2%
[10]
  inhibition: 59%
[11]
  inhibition: Dose-dependent effect

## COc1ccc2ccc(=O)oc2c1C1=NN(C(C)=O)C(c2ccc(C(F)(F)F)cc2)C1 (configuration not stated)
HepG2 [1]
  IC50: 80 nM

## COc1ccc2ccc(=O)oc2c1C1=NN(C(N)=O)C(c2ccc(SC)cc2)C1 (configuration not stated)
HepG2 [1]
  IC50: 18 nM
[2]
  inhibition: 18.2%
[3]
  inhibition: 25.3%
[4]
  inhibition: 17.6%
[5]
  inhibition: 61.7%
[6]
  inhibition: 23.6%
[7]
  inhibition: 15.2%
[8]
  inhibition: 36.5%
[9]
  inhibition: 27.1%
[10]
  inhibition: 51.2%
[11]
  inhibition: Dose-dependent effect

## COc1ccc2ccc(=O)oc2c1C1=NN(C(C)=O)C(c2ccc(SC)cc2)C1 (configuration not stated)
HepG2 [1]
  IC50: 42 nM

## COc1ccc2ccc(=O)oc2c1C1=NNC(c2ccccc2)C1 (configuration not stated)
HepG2 [1]
  IC50: 48 nM

## COc1ccc2ccc(=O)oc2c1C(/C=C/c1cccs1)=N/NC(N)=O
HepG2 [1]
  IC50: 75 nM

## COc1ccc2ccc(=O)oc2c1C1=NN(C(N)=O)C(c2ccc(C(F)(F)F)cc2)C1 (configuration not stated)
HepG2 [1]
  IC50: 96 nM

## COc1ccc2ccc(=O)oc2c1C1=NN(C(N)=O)C(c2ccc(C)cc2)C1 (configuration not stated)
HepG2 [1]
  IC50: 46 nM

## COc1ccc2ccc(=O)oc2c1C1=NN(c2ccccc2)C(c2ccc(SC)cc2)C1 (configuration not stated)
HepG2 [1]
  IC50: 78 nM

## COc1ccc2ccc(=O)oc2c1C1=NN(C(C)=O)C(c2ccccc2)C1 (configuration not stated)
HepG2 [1]
  IC50: 52 nM

## COc1ccc2ccc(=O)oc2c1C1=NNC(c2cccs2)C1 (configuration not stated)
HepG2 [1]
  IC50: 11 nM
[2]
  inhibition: 22.3%
[3]
  inhibition: 31%
[4]
  inhibition: 21.5%
[5]
  inhibition: 75.5%
[6]
  inhibition: 28.9%
[7]
  inhibition: 18.6%
[8]
  inhibition: 44.6%
[9]
  inhibition: 33.1%
[10]
  inhibition: 62.6%
[11]
  inhibition: Dose-dependent effect

## COc1ccc2ccc(=O)oc2c1C1=NN(C(C)=O)C(c2ccc(C)cc2)C1 (configuration not stated)
HepG2 [1]
  IC50: 50 nM

## COc1ccc2ccc(=O)oc2c1C1=NN(c2ccccc2)C(c2ccccc2)C1 (configuration not stated)
HepG2 [1]
  IC50: 73 nM

## COc1ccc2ccc(=O)oc2c1C(/C=C/c1ccc(C)cc1)=N/NC(N)=O
HepG2 [1]
  IC50: 93 nM

## CN[C@@H]1C[C@H]2O[C@@](C)([C@@H]1OC)n1c3ccccc3c3c4c(c5c6ccccc6n2c5c31)C(=O)NC4
[2]
  inhibition: 12.7%
[3]
  inhibition: 30.1%
[4]
  inhibition: 11.3%
[5]
  inhibition: 56.5%
[6]
  inhibition: 15.4%
[7]
  inhibition: 10.7%
[8]
  inhibition: 28.7%
[9]
  inhibition: 18.9%
[10]
  inhibition: 40.1%
[11]
  inhibition: Dose-dependent effect

## COc1ccc2ccc(=O)oc2c1C(/C=C/c1ccc(C(F)(F)F)cc1)=N/NC(N)=O
HepG2 [1]
  IC50: 96 nM

## COc1ccc2ccc(=O)oc2c1C1=NN(c2ccccc2)C(c2ccc(C(F)(F)F)cc2)C1 (configuration not stated)
HepG2 [1]
  IC50: 38 nM

## COc1ccc2ccc(=O)oc2c1C1=NNC(c2ccc(SC)cc2)C1 (configuration not stated)
HepG2 [1]
  IC50: 10 nM
[2]
  inhibition: 23.2%
[3]
  inhibition: 32.3%
[4]
  inhibition: 22.4%
HepG2 [12]
  Activity: 25.45%
[5]
  inhibition: 78.6%
HepG2 [13]
  Activity: 46.85%
[6]
  inhibition: 30.1%
HepG2 [14]
  Activity: Dose-dependent effect
HepG2 [15]
  Activity: 40.96%
[7]
  inhibition: 19.4%
[8]
  inhibition: 46.4%
[9]
  inhibition: 34.5%
HepG2 [16]
  Activity: 35%
[10]
  inhibition: 65.2%
[11]
  inhibition: Dose-dependent effect

## COc1ccc2ccc(=O)oc2c1C(/C=C/c1ccc(SC)cc1)=N/NC(N)=O
HepG2 [1]
  IC50: 99 nM

## COc1ccc2ccc(=O)oc2c1C1=NN(c2ccccc2)C(c2ccc(C)cc2)C1 (configuration not stated)
HepG2 [1]
  IC50: 51 nM

## COc1ccc2ccc(=O)oc2c1C1=NNC(c2ccc(C)cc2)C1 (configuration not stated)
HepG2 [1]
  IC50: 43 nM

## COc1ccc2ccc(=O)oc2c1C1=NN(C(N)=O)C(c2cccs2)C1 (configuration not stated)
HepG2 [1]
  IC50: 26 nM

## COc1ccc2ccc(=O)oc2c1C1=NN(C(C)=O)C(c2cccs2)C1 (configuration not stated)
HepG2 [1]
  IC50: 75 nM
